Counter-ions that a name gives are not always drawn.
The molecules below were run against T1, human β-Secretase (sBACE-Fc) (Homo sapiens, UniProt P56817) (assay: TR-FRET assay (β-secretase enzyme, substrate (Europium)[…](Qsy7))).
T1 construct: The soluble part of the human β-Secretase (AA 1-AA 460) was cloned; Fc domain of IgG1 (C); made in house
Assay type: biochemical
Protocol: The enzyme used in the IGEN Cleavage-, Fluorescent-, TR-FRET- and BiaCore assays is described as follows:
The soluble part of the human β-Secretase (AA 1-AA 460) was cloned into the ASP2-Fc10-1-IRES-GFP-neoK mammalian expression vector. The gene was fused to the Fc domain of IgG1 (affinity tag) and stably cloned into HEK 293 cells. Purified sBACE-Fc is stored in Tris buffer, pH 9.2 and has a purity of 95%.
Enzyme was diluted to 6 μg/mL and the substrate (Europium)[…](Qsy7) to 200 nM in reaction buffer (NaAcetate, chaps, triton x-100, EDTA pH 4.5). Compounds were diluted to the desired concentration in dimethyl sulfoxide (final dimethyl sulfoxide concentration in assay is 5%). The assay was done in a Costar 384 well round bottom, low volume, non-binding surface plate (Corning #3676). Enzyme (9 μL) and 1 μL of compound in dimethyl sulfoxide was added to the plate, mixed and pre-incubated for 10 min. Substrate (10 μL) was added and the reaction proceeded in the dark for 15 min at RT. The reaction was stopped with the addition of 7 μL NaAcetate, pH 9. The fluorescence of the product was measured on a Victor II plate reader with an excitation wavelength of 340 nm and an emission wavelength of 615 nm. […] The dimethyl sulfoxide control defined the 100% activity level and 0% activity was defined by exclusion of the enzyme (using reaction buffer instead).

T1 sequence (P56817 22-460): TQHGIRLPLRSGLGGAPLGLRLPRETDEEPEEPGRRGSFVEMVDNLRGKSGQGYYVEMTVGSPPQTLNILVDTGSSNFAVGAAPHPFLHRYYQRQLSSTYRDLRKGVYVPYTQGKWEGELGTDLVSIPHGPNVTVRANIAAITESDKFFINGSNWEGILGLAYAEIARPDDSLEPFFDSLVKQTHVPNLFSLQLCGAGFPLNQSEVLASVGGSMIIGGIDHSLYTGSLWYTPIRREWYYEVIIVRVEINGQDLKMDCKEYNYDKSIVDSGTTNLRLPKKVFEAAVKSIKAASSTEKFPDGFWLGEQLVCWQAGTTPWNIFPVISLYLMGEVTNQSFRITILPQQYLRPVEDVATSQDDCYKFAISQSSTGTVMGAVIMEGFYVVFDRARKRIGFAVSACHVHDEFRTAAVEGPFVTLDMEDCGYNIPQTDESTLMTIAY

Point of comparison: `COc1cc(-c2cccc(C3(c4ccncc4)N=C(N)N4CCCN=C43)c2)ccc1F` (stereo not shown) [Example 32, 8-(4′-Fluoro-3′-methoxybiphenyl-3-yl)-8-pyridin-4-yl-2,3,4,8-tetrahydroimidazo[1,5-a]pyrimidin-6-amine 0.25 acetate], IC50 515 nM. Against it:
- N#Cc1cccc(-c2cccc(C3(c4ccncc4)N=C(N)N4CCCN=C43)c2)c1 (stereo not shown) [Example 13, 3′-(6-Amino-8-pyridin-4-yl-2,3,4,8-tetrahydroimidazo[1,5-a]pyrimidin-8-yl)-biphenyl-3-carbonitrile hydrochloride] — within 1.5-fold, 353 nM
- COc1cccc(-c2cccc(C3(c4ccncc4)N=C(N)N4CCCN=C43)c2)c1 (stereo not shown) [Example 14, 8-(3′-Methoxybiphenyl-3-yl)-8-pyridin-4-yl-2,3,4,8-tetrahydroimidazo[1,5-a]pyrimidin-6-amine 0.25 acetate] — 7.2-fold lower, 72 nM
- COc1cncc(-c2cccc(C3(c4ccncc4)N=C(N)N4CCCN=C43)c2)c1 (stereo not shown) [Example 15, 8-[3-(5-Methoxypyridin-3-yl)phenyl]-8-pyridin-4-yl-2,3,4,8-tetrahydroimidazo[1,5-a]pyrimidin-6-amine 0.25 acetate] — 4.4-fold lower, 117 nM
- NC1=NC(c2ccncc2)(c2cccc(-c3cccc(Cl)c3)c2)C2=NCCCN12 (stereo not shown) [Example 16, 8-(3′-Chlorobiphenyl-3-yl)-8-pyridin-4-yl-2,3,4,8-tetrahydroimidazo[1,5-a]pyrimidin-6-amine 0.25 acetate] — 9.7-fold lower, 53 nM
- NC1=NC(c2ccncc2)(c2cccc(-c3cccnc3F)c2)C2=NCCCN12 (stereo not shown) [Example 17, 8-[3-(2-Fluoropyridin-3-yl)phenyl]-8-pyridin-4-yl-2,3,4,8-tetrahydroimidazo[1,5-a]pyrimidin-6-amine 0.25 acetate] — 3.4-fold lower, 150 nM
- COc1ccc(F)c(-c2cccc(C3(c4ccncc4)N=C(N)N4CCCN=C43)c2)c1 (stereo not shown) [Example 19, 8-(2′-Fluoro-5′-methoxybiphenyl-3-yl)-8-pyridin-4-yl-2,3,4,8-tetrahydroimidazo[1,5-a]pyrimidin-6-amine 0.25 acetate] — 7-fold lower, 74 nM
- N#Cc1ccc(F)c(-c2cccc(C3(c4ccncc4)N=C(N)N4CCCN=C43)c2)c1 (stereo not shown) [Example 20, 3′-(6-amino-8-pyridin-4-yl-2,3,4,8-tetrahydroimidazo[1,5-a]pyrimidin-8-yl)-6-fluorobiphenyl-3-carbonitrile 0.25 acetate] — within 1.5-fold, 396 nM
- N#Cc1cc(-c2cccc(C3(c4ccncc4)N=C(N)N4CCCN=C43)c2)ccc1F (stereo not shown) [Example 22, 3′-(6-amino-8-pyridin-4-yl-2,3,4,8-tetrahydroimidazo[1,5-a]pyrimidin-8-yl)-4-fluorobiphenyl-3-carbonitrile 0.25 acetate] — within 1.5-fold, 418 nM
- NC1=NC(c2ccncc2)(c2cccc(-c3cccc(Cl)c3F)c2)C2=NCCCN12 (stereo not shown) [Example 23, 8-(3′-Chloro-2′-fluorobiphenyl-3-yl)-8-pyridin-4-yl-2,3,4,8-tetrahydroimidazo[1,5-a]pyrimidin-6-amine 0.25 acetate] — 5.2-fold lower, 99 nM
- NC1=NC(c2ccncc2)(c2cccc(-c3cccc(C(F)(F)F)c3)c2)C2=NCCCN12 (stereo not shown) [Example 24, 8-Pyridin-4-yl-8-[3′-(trifluoromethyl)biphenyl-3-yl]-2,3,4,8-tetrahydroimidazo[1,5-a]pyrimidin-6-amine 0.25 acetate] — within 1.5-fold, 390 nM
- CS(=O)(=O)c1cccc(-c2cccc(C3(c4ccncc4)N=C(N)N4CCCN=C43)c2)c1 (stereo not shown) [Example 25, 8-[3′-(Methylsulfonyl)biphenyl-3-yl]-8-pyridin-4-yl-2,3,4,8-tetrahydroimidazo[1,5-a]pyrimidin-6-amine 0.25 acetate] — 9.9-fold higher, 5080 nM
- NC1=NC(c2ccncc2)(c2cccc(-c3cc(Cl)cc(Cl)c3)c2)C2=NCCCN12 (stereo not shown) [Example 26, 8-(3′,5′-Dichlorobiphenyl-3-yl)-8-pyridin-4-yl)-2,3,4,8-tetrahydroimidazo[1,5-a]pyrimidin-6-amine 0.25 acetate] — 21-fold lower, 25 nM
- COc1cc(Cl)cc(-c2cccc(C3(c4ccncc4)N=C(N)N4CCCN=C43)c2)c1 (stereo not shown) [Example 27, 8-(3′-Chloro-5′-methoxybiphenyl-3-yl)-8-pyridin-4-yl-2,3,4,8-tetrahydroimidazo[1,5-a]pyrimidin-6-amine 0.25 acetate] — 7.8-fold lower, 66 nM
- NC1=NC(c2ccncc2)(c2cccc(-c3cccc(Cl)c3Cl)c2)C2=NCCCN12 (stereo not shown) [Example 28, 8-(2′,3′-Dichlorobiphenyl-3-yl)-8-pyridin-4-yl-2,3,4,8-tetrahydroimidazo[1,5-a]pyrimidin-6-amine 0.25 acetate] — 9.8-fold higher, 5070 nM
- NC1=NC(c2ccncc2)(c2cccc(-c3cc(Cl)cnc3F)c2)C2=NCCCN12 (stereo not shown) [Example 29, 8-[3-(5-Chloro-2-fluoropyridin-3-yl)phenyl]-8-pyridin-4-yl-2,3,4,8-tetrahydroimidazo[1,5-a]pyrimidin-6-amine 0.25 acetate] — 5.9-fold lower, 87 nM
- CCOc1cccc(-c2cccc(C3(c4ccncc4)N=C(N)N4CCCN=C43)c2)c1 (stereo not shown) [Example 30, 8-(3′-Ethoxybiphenyl-3-yl)-8-pyridin-4-yl-2,3,4,8-tetrahydroimidazo[1,5-a]pyrimidin-6-amine 0.25 acetate] — 1.6-fold lower, 328 nM
- NC1=NC(c2ccncc2)(c2cccc(-c3cc(Cl)ccc3F)c2)C2=NCCCN12 (stereo not shown) [Example 31, 8-(5′-Chloro-2′-fluorobiphenyl-3-yl)-8-pyridin-4-yl-2,3,4,8-tetrahydroimidazo[1,5-a]pyrimidin-6-amine 0.25 acetate] — 6.5-fold lower, 79 nM
- NC1=NC(c2ccncc2)(c2cccc(-c3cncc(F)c3)c2)C2=NCCCN12 (stereo not shown) [Example 34, 8-[3-(5-Fluoropyridin-3-yl)phenyl]-8-pyridin-4-yl-2,3,4,8-tetrahydroimidazo[1,5-a]pyrimidin-6-amine 0.25 acetate] — 2.8-fold lower, 186 nM
- COc1cc(OS(C)(=O)=O)cc(-c2cccc(C3(c4ccncc4)N=C(N)N4CCCN=C43)c2)c1 (stereo not shown) [Example 35, 3′-(6-Amino-8-pyridin-4-yl-2,3,4,8-tetrahydroimidazo[1,5-a]pyrimidin-8-yl)-5-methoxybiphenyl-3-yl methanesulfonate 0.25 acetate] — 9-fold lower, 57 nM
- NC1=NC(c2ccncc2)(c2cccc(-c3cc(Cl)ccc3Cl)c2)C2=NCCCN12 (stereo not shown) [Example 36, 8-(2′,5′-Dichlorobiphenyl-3-yl)-8-pyridin-4-yl-2,3,4,8-tetrahydroimidazo[1,5-a]pyrimidin-6-amine 0.25 acetate] — 1.9-fold lower, 267 nM
- NC1=NC(c2ccncc2)(c2cccc(-c3ccc(F)c(Cl)c3)c2)C2=NCCCN12 (stereo not shown) [Example 37, 8-(3′-Chloro-4′-fluorobiphenyl-3-yl)-8-pyridin-4-yl-2,3,4,8-tetrahydroimidazo[1,5-a]pyrimidin-6-amine 0.25 acetate] — 5.2-fold lower, 99 nM
- NC1=NC(c2ccoc2)(c2cccc(-c3cc(Cl)cc(Cl)c3)c2)C2=NCCCN12 (stereo not shown) [Example 43, 8-(3′,5′-Dichlorobiphenyl-3-yl)-8-(3-furyl)-2,3,4,8-tetrahydroimidazo[1,5-a]pyrimidin-6-amine acetate] — 3.4-fold lower, 152 nM
- NC1=NC(c2ccoc2)(c2cccc(-c3cccnc3F)c2)C2=NCCCN12 (stereo not shown) [Example 44, 8-[3-(2-Fluoropyridin-3-yl)phenyl]-8-(3-furyl)-2,3,48-tetrahydroimidazo[1,5-a]pyrimidin-6-amine acetate] — within 1.5-fold, 656 nM
- NC1=NC(c2cccc(-c3cc(Cl)cc(Cl)c3)c2)(c2ccco2)C2=NCCCN12 (stereo not shown) [Example 50, 8-(3′,5′-Dichlorobiphenyl-3-yl)-8-(2-furyl)-2,3,4,8-tetrahydroimidazo[1,5-a]pyrimidin-6-amine acetate] — 7-fold lower, 74 nM

— patent US20070299087A1, “New Compounds 319” (AstraZeneca AB, priority 2006, published 2007)
